Literature values, collected in patent US20140100272A1, “METHODS OF ADMINISTERING COMPOSITIONS COMPRISING DOCOSAPENTAENOIC ACID” (Matinas BioPharma, Inc., priority 2012, published 2014).

Details: in vivo

absorbed at rates: about 30%
Compound: CC[C@H](C)C(=O)O[C@H]1C[C@@H](C)C=C2C=C[C@H](C)[C@H](CC[C@@H]3C[C@@H](O)CC(=O)O3)[C@H]21 [lovastatin]
